This is an account of results in PMC11963564 (Antimicrobial Agents and Chemotherapy, 2025).

One assay concerns 3CL^pro mutant F140A. Type of assay: biochemical, SARS-CoV-2.
Assay [1] relates to SARS-CoV-2 Omicron variant B.1.1.529. The following applies: cited from earlier work.

A word on the IC50: it is the concentration that inhibits the measured activity by half. In the case of simnotrelvir, the “IC50 fold change to WT” value with 3CL^pro mutant F140A is listed as 21.9 fold. The IC50 in assay [1] is 0.043 µM.
